This is an account of results in patent publication US20140088124A1, “IMIDAZOLE DERIVATIVES” (priority 2011, published 2014).

For orientation: pIC50 means −log10 of the IC50, conventionally taken in molar units. Lower therefore signals a large IC50.

pIC50: −log10 of the molar value.

This test concerns the target T1, human DGAT1 (Homo sapiens, UniProt O75907).
T1 sequence (O75907 1-488): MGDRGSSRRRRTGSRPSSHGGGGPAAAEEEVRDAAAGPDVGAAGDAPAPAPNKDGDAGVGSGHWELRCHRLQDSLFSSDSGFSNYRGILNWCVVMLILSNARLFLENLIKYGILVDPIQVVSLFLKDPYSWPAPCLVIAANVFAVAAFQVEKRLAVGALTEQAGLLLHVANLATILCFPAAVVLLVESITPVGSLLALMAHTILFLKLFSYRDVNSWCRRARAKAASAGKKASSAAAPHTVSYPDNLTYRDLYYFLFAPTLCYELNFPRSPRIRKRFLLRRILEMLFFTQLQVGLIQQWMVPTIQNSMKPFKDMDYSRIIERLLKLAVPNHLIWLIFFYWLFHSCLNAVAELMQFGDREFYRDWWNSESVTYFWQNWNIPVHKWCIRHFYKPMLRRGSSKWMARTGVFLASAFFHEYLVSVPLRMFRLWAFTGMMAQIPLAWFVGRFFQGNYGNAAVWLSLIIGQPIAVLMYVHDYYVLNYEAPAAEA
Kind of test: DGAT1 CPM Assay. It is filed as biochemical. The note with it: human DGAT1, CPM fluorescence, 1 hour incubation at room temperature. On the procedure:
20 uL of 90 uM CPM reagent in 90% ethanol was added after 1 hour incubation at room temperature.
As for `O=C(O)CC1CC(OC2CCN(c3ccc(-c4nc5cc(F)ccc5[nH]4)cn3)CC2)C1` (stereo not drawn) [Example 54], the pIC50 was 7.29.

Molecule `O=C(O)CC1C[C@@H]2CC(OC3CCN(c4ccc(-c5nc6ccc(C(F)(F)F)cc6[nH]5)cn4)CC3)C[C@@H]2C1` (stereo partly drawn) [Example 56] gave a pIC50 of 8.70.

Take `O=C(O)CC1C[C@@H]2CC(OC3CCN(c4ccc(-c5nc6ccc(C(F)(F)F)cc6[nH]5)cn4)CC3)C[C@@H]2C1` (stereo partly drawn) [Example 57]: the pIC50 was 8.70.

The molecule `CC(C)(COC1CCN(c2ccc(-c3nc4cc(F)c(F)cc4[nH]3)cn2)CC1)C(=O)O` [Example 60] showed a pIC50 of 7.80. Against the preceding molecule, the pIC50 is 0.90 log units lower.

In the case of `CC(C)(COC1CCN(c2ccc(-c3nc4cc(C(F)(F)F)cnc4[nH]3)cn2)CC1)C(=O)O` [Example 61], the pIC50 is 7.34. This pIC50 lies 0.46 log units lower than the previous one.

Take `CC(C)(COC1CCN(c2ccc(-c3nc4cc(C#N)ccc4[nH]3)cn2)CC1)C(=O)O` [Example 62]: the pIC50 is 7.05.

Turning to `CC(C)(COC1CCN(c2ccc(-c3nc4cc(Cl)cnc4[nH]3)cn2)CC1)C(=O)O` [Example 63], the pIC50 is 6.93.

`CC(C)(COC1CCN(c2ccc(-c3nc4cc(Cl)c(Cl)cc4[nH]3)cn2)CC1)C(=O)O` [Example 64]: the pIC50 was 8.70.

Molecule `Cc1ccc2[nH]c(-c3ccc(N4CCC(OCC(C)(C)C(=O)O)CC4)nc3)nc2n1` [Example 65] gave a pIC50 of 6.10.

Take `COc1ccc2[nH]c(-c3ccc(N4CCC(OCC(C)(C)C(=O)O)CC4)nc3)nc2n1` [Example 66]: the pIC50 is 6.85. Against the preceding molecule, the pIC50 is 0.75 log units higher.

Take `O=C(O)[C@H]1CC[C@@H](OC2CCN(c3ccc(-c4nc5cc(C(F)(F)F)ccc5[nH]4)cn3)CC2)CC1` [Example 68, cis-4-[(1-{5-[5-(trifluoromethyl)-1H-benzimidazol-2-yl]pyridin-2-yl}piperidin-4-yl)oxy]cyclohexanecarboxylic acid]: the pIC50 was 8.70.

With `O=C(O)[C@H]1CC[C@H](OC2CCN(c3ccc(-c4nc5cc(C(F)(F)F)ccc5[nH]4)cn3)CC2)CC1` [Example 69, trans-4-[(1-{5-[5-(trifluoromethyl)-1H-benzimidazol-2-yl]pyridin-2-yl}piperidin-4-yl)oxy]cyclohexanecarboxylic acid], the pIC50 was 8.70.

`O=C(O)[C@H]1CC[C@H](OC2CCN(c3ccc(-c4nc5ccc(C(F)(F)F)nc5[nH]4)cn3)CC2)CC1` [Example 70, trans-4-[(1-{5-[5-(trifluoromethyl)-3H-imidazo[4,5-b]pyridin-2-yl]pyridin-2-yl}piperidin-4-yl)oxy]cyclohexanecarboxylic acid]: the pIC50 was 7.96.

On to `O=C(O)[C@H]1CC[C@H](OC2CCN(c3ccc(-c4nc5cc(Cl)ccc5[nH]4)cn3)CC2)CC1` [Example 71], for which the pIC50 was 8.52. This pIC50 lies 0.56 log units higher than the previous one.

For the molecule `CCOC(=O)[C@H]1CC[C@H](OC2CCN(c3ccc(-c4nc5cc(Cl)ccc5[nH]4)cn3)CC2)CC1` [Example 72], the pIC50 is 7.46. Against the preceding molecule, the pIC50 is 1.06 log units lower.

The molecule `CCOC(=O)[C@H]1CC[C@H](OC2CCN(c3ccc(-c4nc5cc(F)ccc5[nH]4)cn3)CC2)CC1` [Example 73] had a pIC50 of 7.15.

`O=C(O)[C@H]1CC[C@H](OC2CCN(c3ccc(-c4nc5cc(F)ccc5[nH]4)cn3)CC2)CC1` [Example 74] had a negative logarithm of the IC50 (pIC50) of 7.82.

Molecule `CCOC(=O)[C@H]1CC[C@@H](OC2CCN(c3ccc(-c4nc5cc(Cl)ccc5[nH]4)cn3)CC2)CC1` [Example 75] had a pIC50 of 7.85.

As for `O=C(O)[C@H]1CC[C@@H](OC2CCN(c3ccc(-c4nc5cc(Cl)ccc5[nH]4)cn3)CC2)CC1` [Example 76], the pIC50 is 8.70.

Molecule `CCOC(=O)[C@H]1CC[C@@H](OC2CCN(c3ccc(-c4nc5cc(F)ccc5[nH]4)cn3)CC2)CC1` [Example 77] gave a pIC50 of 7.77.

With `O=C(O)[C@H]1CC[C@@H](OC2CCN(c3ccc(-c4nc5cc(F)ccc5[nH]4)cn3)CC2)CC1` [Example 78], the pIC50 was 8.22. This pIC50 lies 0.45 log units higher than the previous one.

Consider `CC1(S(=O)(=O)NC(=O)[C@H]2CC[C@H](OC3CCN(c4ccc(-c5nc6cc(F)ccc6[nH]5)cn4)CC3)CC2)CC1` [Example 80, trans-4-({1-[5-(5-fluoro-1H-benzimidazol-2-yl)pyridin-2-yl]piperidin-4-yl}oxy)-N-[(1-methylcyclopropyl)sulfonyl]cyclohexanecarboxamide], for which the pIC50 was 7.64.

Molecule `CC(C)S(=O)(=O)NC(=O)[C@H]1CC[C@H](OC2CCN(c3ccc(-c4nc5cc(F)ccc5[nH]4)cn3)CC2)CC1` [Example 81] gave a pIC50 of 7.77. This pIC50 and that of the molecule before are within 0.2 log units of each other.

Molecule `O=C(NS(=O)(=O)c1cccnc1)[C@H]1CC[C@H](OC2CCN(c3ccc(-c4nc5cc(F)ccc5[nH]4)cn3)CC2)CC1` [Example 82] had a negative-log IC50 (pIC50) of 7.72.

As to `O=C(NS(=O)(=O)C1CC1)[C@H]1CC[C@H](OC2CCN(c3ccc(-c4nc5cc(F)ccc5[nH]4)cn3)CC2)CC1` [Example 83], the pIC50 was 7.77.

As for `O=C(NS(=O)(=O)c1ccccn1)[C@H]1CC[C@H](OC2CCN(c3ccc(-c4nc5cc(F)ccc5[nH]4)cn3)CC2)CC1` [Example 84], the pIC50 is 7.60.

Consider `O=C(NS(=O)(=O)c1ccc(C(F)(F)F)cc1)[C@H]1CC[C@H](OC2CCN(c3ccc(-c4nc5cc(F)ccc5[nH]4)cn3)CC2)CC1` [Example 85], for which the pIC50 is 8.05. This pIC50 is 0.45 log units higher than that of the molecule before.

Molecule `CS(=O)(=O)NC(=O)[C@H]1CC[C@H](OC2CCN(c3ccc(-c4nc5cc(F)ccc5[nH]4)cn3)CC2)CC1` [Example 86] gave a pIC50 of 7.72.

On to `O=C(NS(=O)(=O)c1ccccc1)[C@H]1CC[C@H](OC2CCN(c3ccc(-c4nc5cc(F)ccc5[nH]4)cn3)CC2)CC1` [Example 87], for which the pIC50 was 7.85.

Take `O=C(NS(=O)(=O)c1ccc(F)cc1)[C@H]1CC[C@H](OC2CCN(c3ccc(-c4nc5cc(F)ccc5[nH]4)cn3)CC2)CC1` [Example 88]: the negative logarithm of the IC50 (pIC50) is 8.05.

As for `O=C(NS(=O)(=O)c1ccc(Cl)cc1)[C@H]1CC[C@H](OC2CCN(c3ccc(-c4nc5cc(F)ccc5[nH]4)cn3)CC2)CC1` [Example 89], the pIC50 was 8.40.

Molecule `O=C(NS(=O)(=O)C(F)(F)F)[C@H]1CC[C@H](OC2CCN(c3ccc(-c4nc5cc(F)ccc5[nH]4)cn3)CC2)CC1` [Example 91] showed a pIC50 of 8.15.

Turning to `O=C(O)C1(C(=O)O)CC(OC2CCN(c3ccc(-c4nc5ccccc5[nH]4)cn3)CC2)C1` [Example 92], the pIC50 is 6.83.

`O=C(O)C1(C(=O)O)CC(OC2CCN(c3ccc(-c4nc5cc(F)ccc5[nH]4)cn3)CC2)C1` [Example 93] gave a pIC50 of 7.15.

In the case of `O=C(O)C1(C(=O)O)CC(OC2CCN(c3ccc(-c4nc5cc(F)c(F)cc5[nH]4)cn3)CC2)C1` [Example 94], the negative-log IC50 (pIC50) was 6.91.

Molecule `O=C(O)C1(C(=O)O)CC(OC2CCN(c3ccc(-c4nc5cc(C(F)(F)F)ccc5[nH]4)cn3)CC2)C1` [Example 95] showed a pIC50 of 7.07.

`N#Cc1ccc2[nH]c(-c3ccc(N4CCC(OC5CC(C(=O)O)(C(=O)O)C5)CC4)nc3)nc2c1` [Example 96] had a pIC50 of 6.56. This pIC50 lies 0.51 log units lower than the previous one.

`Cc1ccc2[nH]c(-c3ccc(N4CCC(OC5CC(C(=O)O)(C(=O)O)C5)CC4)nc3)nc2n1` [Example 97] showed a pIC50 of 6.00. This pIC50 is 0.56 log units lower than that of the molecule before.

`C[C@]1(C(=O)O)CC[C@@H](OC2CCN(c3ccc(-c4nc5ccc(C(F)(F)F)cc5[nH]4)cn3)CC2)CC1` [Example 98, cis-1-methyl-4-[(1-{5-[6-(trifluoromethyl)-1H-benzimidazol-2-yl]pyridin-2-yl}piperidin-4-yl)oxy]cyclohexanecarboxylic acid] had a pIC50 of 8.40.
